Results reported in article PMC7155755, “Binding of the Human 14-3-3 Isoforms to Distinct Sites in the Leucine-Rich Repeat Kinase 2” (Frontiers in Neuroscience, 2020).
Entries after “also recorded” stand apart in the source; their conditions may differ. Square brackets hold non-standard residues; d marks the D form. Primed or numbered codes have the meaning given here. Ends that are not written are not given here. fluorescein″ = fluorescein label on the N-terminus; fluorescein = N-terminal fluorescein label; pS = N[C@@H](COP(=O)(O)O)C(=O)O

T1: human 14-3-3γ (Homo sapiens, UniProt P61981)
T1 construct: MBP (cleaved yes); made in house; host or cells: E. coli BL21DE3
T1 sequence (P61981 1-247): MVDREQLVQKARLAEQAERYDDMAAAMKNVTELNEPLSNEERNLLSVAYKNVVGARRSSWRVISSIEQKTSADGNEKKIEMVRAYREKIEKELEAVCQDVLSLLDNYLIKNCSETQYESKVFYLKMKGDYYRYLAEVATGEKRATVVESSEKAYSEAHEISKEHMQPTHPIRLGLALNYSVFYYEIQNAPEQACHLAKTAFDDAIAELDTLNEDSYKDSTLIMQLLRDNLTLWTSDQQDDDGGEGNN

T2: R1441C/pS1444 (R1441C (stands in the printed letters))
T2 construct: LRRK2-derived peptide of the Roc domain with the familial PD mutation R1441C, phosphorylated at S1444; source: synthetic peptide (Peps4LS GmbH)
T2 peptide: fluorescein-LFNIKACAS[pS]SPVILVGT


Assays:
human 14-3-3γ = target: T1, human 14-3-3γ; experiment: Fluorescence polarization (FP) direct binding assay; settings: fluorescein-labeled peptide 1 nM; for Binding to 14-3-3γ, in words: dilution series of 14-3-3γ (at least 5 μM down to pM), FP buffer pH 7; for Kd: 20 mM MOPS pH 7, 150 mM NaCl, 0.005% CHAPS, at least three independent measurements, read-out: Binding affinity (KD) toward 14-3-3 isoform γ
Experimental: (§1) Human MBP-tagged 14-3-3 isoforms were expressed from pMAL2CX plasmids [[Kilisch et al. (2016)], [Yuan et al. (2003)]] in E. coli BL21DE3 cells. After induction with […] isopropyl-β-D-thiogalactoside, the protein was expressed for 4 h at room temperature. Cells were lysed in MBP-lysis buffer [50 mM Tris–HCl pH 7.5, 150 mM NaCl, 5 mM MgCl2, 1 mM PMSF, 1× cOmplete Protease Inhibitor EDTA-free (Roche)] using a French Pressure cell (FRENCH Press, Thermo, United States). Following centrifugation at 42,000 × g and 4°C for 30 min, the supernatant was transferred to a Maltose-agarose column (1.5 ml bed volume; New England Biolabs GmbH, Germany). Captured proteins were washed six times with 10 ml wash buffer (50 mM Tris–HCl pH 7.5, 150 mM NaCl, 5 mM MgCl2) prior to elution using wash buffer including 15 mM D-maltose. To remove the MBP tag, fusion proteins were incubated with Factor Xa (New England Biolabs GmbH, Germany), at a final concentration of 0.4 μg per 1 mg fusion protein for 24 h at RT following another 72 h at 4°C. Anion exchange chromatography was finally applied to separate residual MBP using a buffer gradient from 20 mM Tris pH 8 to 20 mM Tris pH 8 with 1 M NaCl. For this a RESOURCE Q column (GE Healthcare, United Kingdom) was utilized, employing an ÄKTApurifier (GE Healthcare, United Kingdom) or an NGC Quest Chromatography System (Bio-Rad Laboratories GmbH, Germany).
(§2) FP was used to determine binding affinities of different phosphorylated and non-phosphorylated peptides derived from LRRK2 sequences (Peps4LS GmbH, Germany) toward human 14-3-3 isoforms. Direct binding assays were performed and evaluated as previously described ([Muda et al., 2014]; [Manschwetus et al., 2019]). Briefly, both dilution series of 14-3-3 isoforms ranging from final concentrations of at least 5 μM down to picomolar concentrations and dilutions of the respective fluorescein-labeled peptide (final conc. 1 nM) were prepared in FP buffer (20 mM MOPS pH 7, 150 mM NaCl, 0.005% CHAPS). Subsequently, samples were mixed in 384-well microtiter plates as duplicates (BRAND plates, pureGrade, black, BRAND GmbH & Co. KG, Germany) in a 1:1 ratio and measured using a CLARIOstar plate reader (BMG LABTECH, Germany). Two protein preparations were utilized for at least two independent replications for all measurements while high affinity binding peptides were particularly measured with a minimum of three independent replications for statistical evaluation. Data was analyzed with GraphPad Prism 6.0 (GraphPad Software, San Diego, CA, United States) by plotting obtained FP signals (mPol) against the logarithmic 14-3-3 protein concentrations. Data points represent means ± standard error of mean (SEM) of duplicates. “Ctrl.” indicates the FP signal of fluorescein-labeled peptides without 14-3-3 protein. Sigmoidal dose-response fitting was performed to define KD-values.

[1] = tested on: all seven human 14-3-3 isoforms; experiment: Fluorescence polarization (FP) direct binding assay, statements over all isoforms; settings: for Binding to the human 14-3-3 isoforms, in words: FP direct binding, all seven isoforms, fluorescein-labeled peptide 1 nM, FP buffer pH 7
Experimental: as §1, §2

R1441C/pS1444 = target: T2, R1441C/pS1444; experiment: fluorescence polarisation; direct binding; dilution series of 14-3-3 isoform (at least 5 μM down to picomolar) mixed with 1 nM fluorescein-labelled peptide; 20 mM MOPS pH 7, 150 mM NaCl, 0.005% CHAPS; 384-well plates; settings: both partners purified
pS1444 = experiment: as above

| Molecule | Binding to 14-3-3γ, in words (human 14-3-3γ) | Binding to the human 14-3-3 isoforms, in words [1] | further results |
| --- | --- | --- | --- |
| KKSNpSISVGEFYRDAVLQRCSPNLQRHSNSLGPIF [pS910/S935, fluorescein-labeled LRRK2-derived 35-mer singly phosphorylated at S910] | only weak interactions | no isoform specificity could be distinguished | – |
| CC[C@H](C)[C@H](NC(=O)[C@@H]1CCCN1C(=O)CNC(=O)[C@H](CC(C)C)NC(=O)[C@H](COP(=O)(O)O)NC(=O)[C@H](CC(N)=O)NC(=O)[C@H](CO)NC(=O)[C@H](Cc1c[nH]cn1)NC(=O)[C@H](CCCNC(=N)N)NC(=O)[C@H](CCCNC(=N)N)NC(=O)[C@H](CC(C)C)NC(=O)[C@H](CC(N)=O)NC(=O)[C@@H]1CCCN1C(=O)[C@H](CO)NC(=O)[C@H](CS)NC(=O)[C@@H](N)CCCNC(=N)N)C(=O)N[C@@H](Cc1ccccc1)C(=O)N[C@@H](CC(=O)O)C(=O)N[C@@H](Cc1c[nH]cn1)C(=O)O [Q930R/pS935] | – | – | Kd (human 14-3-3γ): 11.1 ± 10.7 nM |
| RCSPNLQRHpSNSLGPIFDH [pS933, fluorescein-labeled LRRK2-derived phosphopeptide covering pS933] | neither the Q930R mutation nor the additional phosphorylation in pS933 could induce binding | no 14-3-3 binding was detectable | – |
| SPNLQRHSNpSLGPIF [pS935, fluorescein-labeled LRRK2-derived phosphopeptide covering pS935] | did not bind; also recorded: no binding was detected | no binding could be detected; also recorded: could not detect binding; also recorded: non-binding | – |
| CC[C@H](C)[C@H](NC(=O)[C@H](COP(=O)(O)O)NC(=O)[C@H](CC(N)=O)NC(=O)[C@H](CO)NC(=O)[C@H](CCCCN)NC(=O)[C@@H](N)CCCCN)C(=O)N[C@@H](CO)C(=O)N[C@H](C(=O)NCC(=O)N[C@@H](CCC(=O)O)C(=O)N[C@@H](Cc1ccccc1)C(=O)N[C@@H](Cc1ccc(O)cc1)C(=O)N[C@@H](CCCNC(=N)N)C(=O)N[C@@H](CC(=O)O)C(=O)N[C@@H](C)C(=O)N[C@H](C(=O)N[C@@H](CC(C)C)C(=O)N[C@@H](CCC(N)=O)C(=O)N[C@@H](CCCNC(=N)N)C(=O)N[C@@H](CS)C(=O)N[C@@H](CO)C(=O)N1CCC[C@H]1C(=O)N[C@@H](CC(N)=O)C(=O)N[C@@H](CC(C)C)C(=O)N[C@@H](CCC(N)=O)C(=O)N[C@@H](CCCNC(=N)N)C(=O)N[C@@H](Cc1c[nH]cn1)C(=O)N[C@@H](CO)C(=O)N[C@@H](CC(N)=O)C(=O)N[C@@H](COP(=O)(O)O)C(=O)N[C@@H](CC(C)C)C(=O)NCC(=O)N1CCC[C@H]1C(=O)N[C@H](C(=O)N[C@@H](Cc1ccccc1)C(=O)O)[C@@H](C)CC)C(C)C)C(C)C [pS910/pS935] | – | – | Kd (human 14-3-3γ): 3.2 ± 0.5 nM |
| RCSPNLRRHSNSLGPIFDH [Q930R, fluorescein-labeled non-phosphorylated LRRK2-derived peptide with mutation Q930R] | neither the Q930R mutation nor the additional phosphorylation in pS933 could induce binding | – | – |
| LFNIKARASSSPVILVGT [S1443/S1444, fluorescein-labeled non-phosphorylated LRRK2 Roc domain peptide covering S1443 and S1444] | – | no detectable binding | – |
| KKSNSISVGEFYRDAVLQRCSPNLQRHSNpSLGPIF [S910/pS935, fluorescein-labeled LRRK2-derived 35-mer singly phosphorylated at S935] | only weak interactions | no isoform specificity could be distinguished | – |
| RCSPNLRRHpSNSLGPIFDH [Q930R/pS933, fluorescein-labeled LRRK2-derived peptide with mutation Q930R and pS933] | – | no 14-3-3 binding was detectable | – |
| KKSN SISVGEFYRDAVLQRCSPNLQRHSNSLGPIF ({fluorescein″}-KKSNSISVGEFYRDAVLQRCSPNLQRHSNSLGPIF) [S910/S935, fluorescein-labeled non-phosphorylated LRRK2-derived 35-mer encompassing S910 and S935] | did not bind | – | – |
| LFNIKACASSSPVILVGT [R1441C, fluorescein-labeled non-phosphorylated LRRK2 Roc domain peptide with mutation R1441C] | did not bind; also recorded: no binding | did not bind any of the 14-3-3 isoforms | – |
| LFNIKACASpSSPVILVGT [R1441C/pS1444, fluorescein-labeled LRRK2 Roc domain peptide with R1441C and pS1444] | micromolar affinities; also recorded: strongly decreased the nanomolar affinity of pS1444 alone | affinities in the micromolar range | Factor by which the mutation R1441C decreases the affinity to all 14-3-3 isoforms ([1]; FP, R1441C/pS1444 compared with pS1444): ≥ 30 |
| LFNIKARApSSSPVILVGT [pS1443, fluorescein-labeled LRRK2 Roc domain phosphopeptide, pS1443] | did not allow for binding | no detectable binding; also recorded: not demonstrated for any isoform | – |
| human 14-3-3 isoform ε (recombinant, MBP tag removed) (natural protein, UniProt P62258 1-255, looked up, 14-3-3 epsilon, human; Expressed from pMAL2CX plasmids; also called 14-3-3ε; source: E. coli BL21DE3, purified (maltose-agarose, Factor Xa, anion exchange)) MDDREDLVYQAKLAEQAERYDEMVESMKKVAGMDVELTVEERNLLSVAYKNVIGARRASWRIISSIEQKEENKGGEDKLKMIREYRQMVETELKLICCDILDVLDKHLIPAANTGESKVFYYKMKGDYHRYLAEFATGNDRKEAAENSLVAYKAASDIAMTELPPTHPIRLGLALNFSVFYYEILNSPDRACRLAKAAFDDAIAELDTLSEESYKDSTLIMQLLRDNLTLWTSDMQGDGEEQNKEALQDVEDENQ | – | – | fold decrease in affinity against pS1444 (R1441C/pS1444): ≥ 30 fold; Kd (pS1444): > 1000 nM |
| human 14-3-3 isoform β (recombinant, MBP tag removed) (natural protein, UniProt P31946 1-246, looked up, 14-3-3 beta, human; Expressed from pMAL2CX plasmids; also called 14-3-3β; source: E. coli BL21DE3, purified (maltose-agarose, Factor Xa, anion exchange)) MTMDKSELVQKAKLAEQAERYDDMAAAMKAVTEQGHELSNEERNLLSVAYKNVVGARRSSWRVISSIEQKTERNEKKQQMGKEYREKIEAELQDICNDVLELLDKYLIPNATQPESKVFYLKMKGDYFRYLSEVASGDNKQTTVSNSQQAYQEAFEISKKEMQPTHPIRLGLALNFSVFYYEILNSPEKACSLAKTAFDEAIAELDTLNEESYKDSTLIMQLLRDNLTLWTSENQGDEGDAGEGEN | – | – | fold decrease in affinity against pS1444 (R1441C/pS1444): ≥ 30 fold; Kd (pS1444): 183 nM |
